For one assay, the target named is T1, Histone deacetylase 7 (Homo sapiens, UniProt Q8WUI4).
T1 sequence (Q8WUI4 whole entry): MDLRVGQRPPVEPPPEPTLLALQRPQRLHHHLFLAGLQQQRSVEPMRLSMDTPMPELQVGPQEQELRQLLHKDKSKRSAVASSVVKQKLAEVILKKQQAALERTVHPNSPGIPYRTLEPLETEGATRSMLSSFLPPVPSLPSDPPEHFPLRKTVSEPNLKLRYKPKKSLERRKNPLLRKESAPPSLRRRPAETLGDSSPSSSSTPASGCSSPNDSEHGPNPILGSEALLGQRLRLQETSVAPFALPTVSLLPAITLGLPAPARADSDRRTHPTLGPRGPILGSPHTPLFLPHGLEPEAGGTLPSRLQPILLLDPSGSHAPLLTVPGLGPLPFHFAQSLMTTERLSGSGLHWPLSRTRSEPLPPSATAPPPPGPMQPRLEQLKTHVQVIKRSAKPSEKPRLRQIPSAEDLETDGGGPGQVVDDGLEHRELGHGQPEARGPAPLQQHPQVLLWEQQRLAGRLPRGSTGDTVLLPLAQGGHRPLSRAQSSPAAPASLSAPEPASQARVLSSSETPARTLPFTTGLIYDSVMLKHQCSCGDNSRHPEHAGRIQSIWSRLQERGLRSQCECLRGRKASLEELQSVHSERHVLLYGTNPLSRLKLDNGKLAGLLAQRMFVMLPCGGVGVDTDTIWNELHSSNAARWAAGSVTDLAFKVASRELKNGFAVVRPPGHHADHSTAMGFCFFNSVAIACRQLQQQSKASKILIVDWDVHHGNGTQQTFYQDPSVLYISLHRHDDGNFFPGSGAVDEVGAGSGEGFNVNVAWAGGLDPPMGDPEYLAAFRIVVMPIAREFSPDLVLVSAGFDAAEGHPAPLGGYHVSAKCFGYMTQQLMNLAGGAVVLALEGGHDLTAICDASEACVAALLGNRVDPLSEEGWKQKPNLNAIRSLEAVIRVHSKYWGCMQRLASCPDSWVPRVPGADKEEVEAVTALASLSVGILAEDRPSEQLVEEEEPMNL
Nature of the assay: Inhibition of human HDAC-7 using RHKK(Ac) as substrate.

In a further assay the target is T2, Histone deacetylase 11 (Homo sapiens, UniProt Q96DB2).
T2 sequence (Q96DB2 whole entry): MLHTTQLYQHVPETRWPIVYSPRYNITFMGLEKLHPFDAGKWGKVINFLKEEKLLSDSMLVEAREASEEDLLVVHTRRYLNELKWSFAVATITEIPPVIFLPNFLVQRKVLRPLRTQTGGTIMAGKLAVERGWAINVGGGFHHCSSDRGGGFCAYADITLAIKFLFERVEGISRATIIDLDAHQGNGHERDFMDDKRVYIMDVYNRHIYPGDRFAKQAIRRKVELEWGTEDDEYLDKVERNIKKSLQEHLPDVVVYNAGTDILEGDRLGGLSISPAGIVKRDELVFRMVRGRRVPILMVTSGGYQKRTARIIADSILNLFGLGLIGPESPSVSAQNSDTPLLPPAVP
Nature of the assay: Inhibition of human HDAC-11 using RHKK(Ac) as substrate.

In ChEMBL document CHEMBL3232879, “4,5,6,7-Tetrahydro-isoxazolo-[4,5-c]-pyridines as a new class of cytotoxic Hsp90 inhibitors” (Eur J Med Chem, 2014) one finds IC50 data, which are given here for one compound.

A word on the IC50: it is the concentration that gives 50% inhibition. As to `CC(C)c1cc(C(=O)N2CCc3onc(C(=O)NCCCCCCC(=O)NO)c3C2)c(O)cc1O`, the values for the IC50 at Histone deacetylase 7 and on Histone deacetylase 11 were 2510 nM and 521 nM, respectively.
